{
  "source": "paper PMC10877564",
  "about": "“Activity of Gut-Derived Nisin-like Lantibiotics against Human Gut Pathogens and Commensals” (ACS Chemical Biology, 2024)",
  "experiment_in_all_cases": "MIC assay, anaerobic broth dilution",
  "key": {"C. difficile VPI10463": {"system": "C. difficile VPI10463", "assay_type": "cell-based, Clostridioides difficile", "details": "BHIS, 37 °C, 48 h, 3-fold serial dilution", "description": "Next, we set out to test the antimicrobial activities of these purified lantibiotics against a panel of Gram-positive bacteria that are representatives of some of the most prevalent human pathogens: VRE, Methicillin-resistant S. aureus USA300 (MRSA), Methicillin-resistant Staphylococcus epidermidis SK135 (MRSE), Listeria monocytogenes 10403S, and Clostridioides difficile VPI10463. We examined the growth of bacteria in a 96-well plate under a concentration gradient of lantibiotics under anaerobic conditions (Figure S2B).\nElution Buffer (4 M guanidine hydrochloride, 20 mM Tris HCl, pH 7.5 at 25 °C, 100 mM NaCl, 1 M imidazole). Peptides eluted from the Ni resin were concentrated and desalted using 3 kDa Amicon filters (Millipore). For leader peptide removal, the peptide (1:20 trypsin to peptide) was incubated with the trypsin protease in 50 mM Tris-HCl, pH 8 overnight at 37 °C. Lastly, the core peptides were further purified with HPLC using an Agilent 1200 instrument (Agilent) as specified […]\nin general methods. […]\nFor broth cultures, isolates were grown in pre-reduced BHI supplemented with 5 g/L yeast extract (Difco, BD) and 0.1% L-cysteine under anaerobic condition. […]\n(§1) All MIC assays were performed under anaerobic condition. […] Lantibiotics were dissolved in DPBS, and concentrations were determined by BCA assay (Pierce) according to the manufacturer’s protocol. […]"}, "[1]": {"system": "E. faecium ATCC700221 (VRE)", "assay_type": "cell-based, Enterococcus faecium", "details": "BHIS, 37 °C, 48 h, 3-fold serial dilution", "description": "(§2) Next, we set out to test the antimicrobial activities of these purified lantibiotics against a panel of Gram-positive bacteria that are representatives of some of the most prevalent human pathogens: VRE, Methicillin-resistant S. aureus USA300 (MRSA), Methicillin-resistant Staphylococcus epidermidis SK135 (MRSE), Listeria monocytogenes 10403S, and Clostridioides difficile VPI10463. We examined the growth of bacteria in a 96-well plate under a concentration gradient of lantibiotics under anaerobic conditions (Figure S2B). […]\n(§3) For broth cultures, isolates were grown in pre-reduced BHI supplemented with 5 g/L yeast extract (Difco, BD) and 0.1% L-cysteine under anaerobic condition.\n(§4) Minimal Inhibition Concentration (MIC) assay\n(§5) All MIC assays were performed under anaerobic condition. Stationary bacterial culture in BHIS (BHI supplemented with 5 g/L yeast extract and 0.1% L-cysteine) were inoculated 1:100 to wells containing 200 µL BHIS in U-bottom 96-well plates. Lantibiotics were dissolved in DPBS, and concentrations were determined by BCA assay (Pierce) according to the manufacturer’s protocol.\n(§6) Lantibiotic stock solutions were added to wells to reach desired final concentration, with 3-fold serial dilution across rows to create concentration gradients. Bacteria-inoculated wells without lantibiotics served as control. […]"}, "[2]": {"system": "S. epidermidis SK135 (MRSE)", "assay_type": "cell-based, Staphylococcus epidermidis", "details": "BHIS, 37 °C, 48 h, 3-fold serial dilution", "description": "as §2, §3, §4, §5, §6"}, "[3]": {"system": "Coprococcus eutactus MSK.18.32", "assay_type": "cell-based", "details": "Coprococcus eutactus MSK.18.32; anaerobic, BHIS, 37 °C, 48 h, 3-fold serial dilution", "description": "(§7) Antibiotic treatment may result in collateral damage to commensal bacteria in the human microbiome, leading to dysbiosis and susceptibility to various diseases.[44] How lantibiotics impact Gram-positive commensals from the human gut has remained unclear. Therefore, we performed antimicrobial activity tests of these lantibiotics against selected Gram-positive human gut commensals, most of which belong to the Lachnospiraceae family, one of the most abundant bacterial families in the human gut.[27] In general, human gut commensals were more susceptible to the set of investigated lantibiotics compared to pathogens (Figure 3).\nElution Buffer (4 M guanidine hydrochloride, 20 mM Tris HCl, pH 7.5 at 25 °C, 100 mM NaCl, 1 M imidazole). Peptides eluted from the Ni resin were concentrated and desalted using 3 kDa Amicon filters (Millipore). For leader peptide removal, the peptide (1:20 trypsin to peptide) was incubated with the trypsin protease in 50 mM Tris-HCl, pH 8 overnight at 37 °C. Lastly, the core peptides were further purified with HPLC using an Agilent 1200 instrument (Agilent) as specified in general methods. About 1.5 mg recombinant peptide was obtained after HPLC purification per […]\nas §1"}, "C. comes MSK.11.23": {"system": "C. comes MSK.11.23", "assay_type": "cell-based, Coprococcus comes", "description": "as §7, with “3). […]” for “3).”\nIsolation of human gut commensal bacteria\nIsolation and growth of commensal bacteria was done as previously reported.5 Briefly, fresh donor fecal samples were transferred into an anaerobic chamber (Coy Labs) within 1 h of collection. The anaerobic chamber was maintained using a gas mix consisting of 5% hydrogen, 5% carbon dioxide and 90% nitrogen, and hydrogen was maintained at ~3.0% using an anaerobic gas infuser. Fecal samples were resuspended in pre-reduced PBS and plated on Columbia blood agar or brain-heart infusion (BHI – Difco, BD) agar plates in three serial 10-fold dilutions and incubated at 37 °C for 48 – 96 h. Isolated colonies were re-streaked for purity onto Columbia blood agar and frozen in pre-reduced 10% glycerol in PBS.\nas §3, §4, §5\nLantibiotic stock solutions were added to wells to reach desired final concentration, with 3-fold serial dilution across rows to create concentration gradients. Bacteria-inoculated wells without lantibiotics served as control. Plates were incubated at 37 °C for 48 h before being taken out of the anaerobic chamber for centrifugation. Plates were imaged with an iBright 1500 imager […]\npellets than those without lantibiotics were identified as MIC."}},
  "note": "Positions of bridges follow the written chain, without caps; N, C: chain ends. Non-standard residues stand in square brackets, D forms with d. No end group written: not given here. Abu = CC[C@H](N)C(=O)O; Dhb = C/C=C(\\N)C(=O)O; Dha = C=C(N)C(=O)O",
  "data": [
    {"substance": "nisin A (I[Dhb]AI[Dha]LC[Abu]PGCK[Abu]GALMGCNMK[Abu]A[Abu]CHCSIHV[Dha]K; thioether 8-11, 13-19, 23-26, 25-28, 3-7; UniProt P13068 24-57, looked up) [prototypical class I lantibiotic produced by L. lactis, food preservative; commercial nisin A]", "values": [
      {"measurement": "nisin A MIC", "setting": "C. difficile VPI10463", "result": 2.67, "unit": "µM"},
      {"measurement": "nisin A MIC", "setting": "[1]", "result": 1.48, "unit": "µM"},
      {"measurement": "nisin A MIC", "setting": "[2]", "result": 2.67, "unit": "µM"},
      {"measurement": "nisin A MIC", "setting": "[3]", "result": 0.0110, "unit": "µM"},
      {"measurement": "nisin A MIC", "setting": "C. comes MSK.11.23; C. comes MSK.11.23, anaerobic, BHIS, 37 °C, 48 h, 3-fold serial dilution", "result": 0.296, "unit": "µM"},
      {"measurement": "sensitivity of C. comes MSK.11.23 to the lantibiotic (in words)", "setting": "C. comes MSK.11.23; Figure 3, anaerobic MIC assay", "result": "relatively resistant"}
    ]}
  ]
}
